Measured values published in patent US20260035382A1, “COMPOUNDS AS SUMO ACTIVATING ENZYME INHIBITORS” (WIGEN BIOMEDICINE TECHNOLOGY (SHANGHAI) CO., LTD., priority 2022, published 2026).

target: SAE (Homo sapiens (Human), UniProt Q9UBT2); test: In vitro inhibitory activity assay against SAE (SUMO-2/3 immunofluorescence in HCT116 cells); format: cell-based; details: 6 h incubation, class symbols, read-out: SUMO IF IC50
Protocol: HCT116 cells were seeded into a 96-well black transparent bottom plate at about 20000/well with 90 μL per well. The cells were incubated at 37° C. overnight for 24 h. The test compounds were 10-fold diluted to give a final concentration, and 10 μL of the diluted compounds was added to each well of the cell culture plate. The mixture was incubated at 37° C. for 6 h. The cells were then washed gently, the culture medium was discarded, and the cells were washed once with 200 μL of 0.1% o PBST. 50 μL of 4% PFA was added to each well, and the cells were immobilized at room temperature for 20 min, and then washed with PBS 2-3 times. 50 μL of 0.2% o Triton X-100 was added to each well, and the cells were left to stand at room temperature for 15 min and washed with 0.1% PBST 3 times. 100 uL of 3% BSA (0.6 g BSA+20 mL PBS) was added to each well, and the mixture was blocked at 37° C. for 30 min. After the blocking was completed, the liquid was removed and a primary antibody (SUMO-2/3 (181H8) Rabbit mAb, 1:400 dilution) was prepared with […]. 30 μL of the diluted primary antibody was added to each well, and the mixture was incubated at 4° C. overnight. The cells were washed 3 times with 200 μL of 0.1% o PBST. A FITC secondary antibody (Fluorescein (FITC)-conjugated Affinipure Goat Anti-Rabbit IgG (H+L), 1:300 dilution) was further prepared with 1% o BSA, and 40 μL of the diluted secondary antibody was added to each well. The mixture was incubated at room temperature in the dark for 2 h, and then the cells were washed 4 times with 0.1% PBST. The fluorescence signal of the sample was detected and compared to the DMSO group, and the inhibition rate and IC50 were calculated.

Sequence of SAE (Q9UBT2 whole entry): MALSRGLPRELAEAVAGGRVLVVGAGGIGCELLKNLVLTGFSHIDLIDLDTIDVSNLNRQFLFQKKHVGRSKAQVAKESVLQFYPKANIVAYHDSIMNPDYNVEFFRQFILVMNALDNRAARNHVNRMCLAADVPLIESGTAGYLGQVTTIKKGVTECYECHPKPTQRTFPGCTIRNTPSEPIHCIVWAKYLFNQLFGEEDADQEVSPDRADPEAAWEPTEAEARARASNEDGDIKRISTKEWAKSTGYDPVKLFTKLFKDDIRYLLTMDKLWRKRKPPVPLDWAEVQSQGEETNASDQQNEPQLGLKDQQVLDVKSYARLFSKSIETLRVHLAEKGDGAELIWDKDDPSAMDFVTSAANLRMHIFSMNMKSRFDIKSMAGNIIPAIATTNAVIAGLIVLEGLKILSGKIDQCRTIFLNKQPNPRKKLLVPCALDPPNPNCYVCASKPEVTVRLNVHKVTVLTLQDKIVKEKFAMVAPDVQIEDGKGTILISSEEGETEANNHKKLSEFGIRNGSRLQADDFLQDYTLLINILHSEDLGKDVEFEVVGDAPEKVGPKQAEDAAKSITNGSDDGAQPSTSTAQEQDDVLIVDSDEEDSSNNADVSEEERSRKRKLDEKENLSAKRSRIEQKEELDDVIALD
Sequence of SAE (Q9UBE0 whole entry partner): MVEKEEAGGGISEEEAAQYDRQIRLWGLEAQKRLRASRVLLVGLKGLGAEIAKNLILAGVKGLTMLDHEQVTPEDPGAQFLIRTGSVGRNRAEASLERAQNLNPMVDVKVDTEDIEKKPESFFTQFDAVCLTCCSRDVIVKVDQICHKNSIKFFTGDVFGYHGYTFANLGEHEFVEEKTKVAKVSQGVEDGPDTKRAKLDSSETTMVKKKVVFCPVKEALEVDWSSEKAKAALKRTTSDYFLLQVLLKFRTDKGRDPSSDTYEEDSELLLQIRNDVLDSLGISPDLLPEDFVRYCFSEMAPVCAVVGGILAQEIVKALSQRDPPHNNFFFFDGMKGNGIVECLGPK

Row | Compound | IC50 [nM]
1 | NS(=O)(=O)OC[C@H]1C[C@@H](Nc2ncncc2C(=O)c2cc3c(s2)COCC32NCCc3c(Cl)cc(Cl)cc32)C[C@@H]1O (stereo partly drawn) [Compound 100] | 50 to 200
2 | NS(=O)(=O)OC[C@H]1C[C@@H](Nc2ncncc2C(=O)c2cc3c(s2)COC[C@@]32NCCc3c(Cl)cc(Cl)cc32)C[C@@H]1O [Compound 101] | > 200
3 | NS(=O)(=O)OC[C@H]1C[C@@H](Nc2ncncc2C(=O)c2cc3c(s2)COC[C@]32NCCc3c(Cl)cc(Cl)cc32)C[C@@H]1O [Compound 102] | 50 to 200
4 | NS(=O)(=O)OC[C@H]1C[C@@H](Nc2ncncc2C(=O)c2cc3c(s2)COCC32NCCc3ccc(Cl)c(F)c32)C[C@@H]1O (stereo partly drawn) [Compound 103] | 50 to 200
5 | NS(=O)(=O)OC[C@H]1C[C@@H](Nc2ncncc2C(=O)c2cc3c(s2)COC[C@@]32NCCc3ccc(Cl)c(F)c32)C[C@@H]1O [Compound 104] | > 200
6 | NS(=O)(=O)OC[C@H]1C[C@@H](Nc2ncncc2C(=O)c2cc3c(s2)COC[C@]32NCCc3ccc(Cl)c(F)c32)C[C@@H]1O [Compound 105] | 50 to 200
7 | NS(=O)(=O)OC[C@H]1C[C@@H](Nc2ncncc2C(=O)c2cc3c(s2)COCC32NCCc3cc(F)c(Cl)cc32)C[C@@H]1O (stereo partly drawn) [Compound 106] | 50 to 200
8 | NS(=O)(=O)OC[C@H]1C[C@@H](Nc2ncncc2C(=O)c2cc3c(s2)COC[C@@]32NCCc3cc(F)c(Cl)cc32)C[C@@H]1O [Compound 107] | > 200
9 | NS(=O)(=O)OC[C@H]1C[C@@H](Nc2ncncc2C(=O)c2cc3c(s2)COC[C@]32NCCc3cc(F)c(Cl)cc32)C[C@@H]1O [Compound 108] | 50 to 200
10 | NS(=O)(=O)OC[C@H]1C[C@@H](Nc2ncncc2C(=O)c2cc3c(s2)COCC32NCCc3c(F)cc(Cl)cc32)C[C@@H]1O (stereo partly drawn) [Compound 109] | 50 to 200
11 | NS(=O)(=O)OC[C@H]1C[C@@H](Nc2ncncc2C(=O)c2cc3c(s2)COC[C@@]32NCCc3c(F)cc(Cl)cc32)C[C@@H]1O [Compound 110] | > 200
12 | NS(=O)(=O)OC[C@H]1C[C@@H](Nc2ncncc2C(=O)c2cc3c(s2)COC[C@]32NCCc3c(F)cc(Cl)cc32)C[C@@H]1O [Compound 111] | 50 to 200
13 | CN1Cc2sc(C(=O)c3cncnc3N[C@@H]3C[C@H](COS(N)(=O)=O)[C@@H](O)C3)cc2C2(C1)NCCc1ccc(Cl)cc12 (stereo partly drawn) [Compound 112] | ≤ 50
14 | NS(=O)(=O)OC[C@H]1C[C@@H](Nc2ncncc2C(=O)c2cc3c(s2)CN(C2CC2)CC32NCCc3ccc(Cl)cc32)C[C@@H]1O (stereo partly drawn) [Compound 115] | ≤ 50
15 | NS(=O)(=O)OC[C@H]1C[C@@H](Nc2ncncc2C(=O)c2cc3c(s2)CNCC32NCCc3ccc(Cl)cc32)C[C@@H]1O (stereo partly drawn) [Compound 118] | 50 to 200
16 | NS(=O)(=O)OC[C@H]1C[C@@H](Nc2ncncc2C(=O)c2cc3c(s2)CNC[C@@]32NCCc3ccc(Cl)cc32)C[C@@H]1O [Compound 119] | > 200
17 | NS(=O)(=O)OC[C@H]1C[C@@H](Nc2ncncc2C(=O)c2cc3c(s2)CNC[C@]32NCCc3ccc(Cl)cc32)C[C@@H]1O [Compound 120] | 50 to 200
18 | NS(=O)(=O)OC[C@H]1C[C@@H](Nc2ncncc2C(=O)c2nc3c(s2)CCCC32NCCc3ccc(Cl)cc32)C[C@@H]1O (stereo partly drawn) [Compound 121] | > 200
19 | NS(=O)(=O)OC[C@H]1C[C@@H](Nc2ncncc2C(=O)c2nc3c(s2)CCC[C@@]32NCCc3ccc(Cl)cc32)C[C@@H]1O [Compound 122] | > 200
20 | NS(=O)(=O)OC[C@H]1C[C@@H](Nc2ncncc2C(=O)c2nc3c(s2)CCC[C@]32NCCc3ccc(Cl)cc32)C[C@@H]1O [Compound 123] | 50 to 200
21 | NS(=O)(=O)OC[C@H]1C[C@@H](Nc2ncncc2C(=O)c2nc3c(s2)COCC32NCCc3ccc(Cl)cc32)C[C@@H]1O (stereo partly drawn) [Compound 124] | > 200
22 | NS(=O)(=O)OC[C@H]1C[C@@H](Nc2ncncc2C(=O)c2nc3c(s2)COC[C@@]32NCCc3ccc(Cl)cc32)C[C@@H]1O [Compound 125] | > 200
23 | NS(=O)(=O)OC[C@H]1C[C@@H](Nc2ncncc2C(=O)c2nc3c(s2)CCC[C@]32NCCc3ccc(Cl)cc32)C[C@@H]1O [Compound 126] | > 200
24 | NS(=O)(=O)OC[C@H]1C[C@@H](Nc2ncncc2C(=O)c2nc3c(s2)CSCC32NCCc3ccc(Cl)cc32)C[C@@H]1O (stereo partly drawn) [Compound 127] | > 200

Row | Compound | IC50 [nM]
25 | NS(=O)(=O)OC[C@H]1C[C@@H](Nc2ncncc2C(=O)c2nc3c(s2)CSC[C@@]32NCCc3ccc(Cl)cc32)C[C@@H]1O [Compound 128] | > 200
26 | NS(=O)(=O)OC[C@H]1C[C@@H](Nc2ncncc2C(=O)c2nc3c(s2)CSC[C@]32NCCc3ccc(Cl)cc32)C[C@@H]1O [Compound 129] | 50 to 200
27 | CN1CCc2ccc(Cl)cc2C12CCCc1sc(C(=O)c3cncnc3N[C@@H]3C[C@H](COS(N)(=O)=O)[C@@H](O)C3)cc12 (stereo partly drawn) [Compound 130] | 50 to 200
28 | CN1CCc2ccc(Cl)cc2[C@]12CCCc1sc(C(=O)c3cncnc3N[C@@H]3C[C@H](COS(N)(=O)=O)[C@@H](O)C3)cc12 [Compound 131] | > 200
29 | CN1CCc2ccc(Cl)cc2[C@@]12CCCc1sc(C(=O)c3cncnc3N[C@@H]3C[C@H](COS(N)(=O)=O)[C@@H](O)C3)cc12 [Compound 132] | 50 to 200
30 | NS(=O)(=O)OC[C@H]1C[C@@H](Nc2ncncc2C(=O)c2cc3c(s2)CCCC32NCCc3cnc(Cl)cc32)C[C@@H]1O (stereo partly drawn) [Compound 133] | 50 to 200
31 | NS(=O)(=O)OC[C@H]1C[C@@H](Nc2ncncc2C(=O)c2cc3c(s2)CCC[C@@]32NCCc3cnc(Cl)cc32)C[C@@H]1O [Compound 134] | > 200
32 | NS(=O)(=O)OC[C@H]1C[C@@H](Nc2ncncc2C(=O)c2cc3c(s2)CCC[C@]32NCCc3cnc(Cl)cc32)C[C@@H]1O [Compound 135] | ≤ 50
33 | NS(=O)(=O)CC[C@H]1C[C@@H](Nc2ncncc2C(=O)c2cc3c(s2)CCCC32NCCc3ccc(Cl)nc32)C[C@@H]1O (stereo partly drawn) [Compound 136] | ≤ 50
34 | NS(=O)(=O)OC[C@H]1C[C@@H](Nc2ncncc2C(=O)c2cc3c(s2)CCC[C@]32NCCc3ccc(Cl)nc32)C[C@@H]1O [Compound 138] | ≤ 50
35 | NS(=O)(=O)OC[C@H]1C[C@@H](Nc2ncncc2C(=O)c2cc3c(s2)CCCC32NCCc3ncc(Cl)cc32)C[C@@H]1O (stereo partly drawn) [Compound 139] | 50 to 200
36 | NS(=O)(=O)OC[C@H]1C[C@@H](Nc2ncncc2C(=O)c2cc3c(s2)CCC[C@@]32NCCc3ncc(Cl)cc32)C[C@@H]1O [Compound 140] | > 200
37 | NS(=O)(=O)OC[C@H]1C[C@@H](Nc2ncncc2C(=O)c2cc3c(s2)CCC[C@]32NCCc3ncc(Cl)cc32)C[C@@H]1O [Compound 141] | ≤ 50
38 | NS(=O)(=O)OC[C@H]1C[C@@H](Nc2ncncc2C(=O)c2cc3c(s2)CSCC32NCCc3cnc(Cl)cc32)C[C@@H]1O (stereo partly drawn) [Compound 142] | 50 to 200
39 | NS(=O)(=O)OC[C@H]1C[C@@H](Nc2ncncc2C(=O)c2cc3c(s2)CSC[C@@]32NCCc3cnc(Cl)cc32)C[C@@H]1O [Compound 143] | > 200
40 | NS(=O)(=O)OC[C@H]1C[C@@H](Nc2ncncc2C(=O)c2cc3c(s2)CSC[C@]32NCCc3cnc(Cl)cc32)C[C@@H]1O [Compound 144] | ≤ 50
41 | NS(=O)(=O)OC[C@H]1C[C@@H](Nc2ncncc2C(=O)c2cc3c(s2)CSCC32NCCc3ccc(Cl)nc32)C[C@@H]1O (stereo partly drawn) [Compound 145] | 50 to 200
42 | NS(=O)(=O)OC[C@H]1C[C@@H](Nc2ncncc2C(=O)c2cc3c(s2)CSC[C@@]32NCCc3ccc(Cl)nc32)C[C@@H]1O [Compound 146] | > 200
43 | NS(=O)(=O)OC[C@H]1C[C@@H](Nc2ncncc2C(=O)c2cc3c(s2)CSC[C@]32NCCc3ccc(Cl)nc32)C[C@@H]1O [Compound 147] | ≤ 50
44 | NS(=O)(=O)OC[C@H]1C[C@@H](Nc2ncncc2C(=O)c2cc3c(s2)CSCC32NCCc3ncc(Cl)cc32)C[C@@H]1O (stereo partly drawn) [Compound 148] | 50 to 200
45 | NS(=O)(=O)OC[C@H]1C[C@@H](Nc2ncncc2C(=O)c2cc3c(s2)CSC[C@@]32NCCc3ncc(Cl)cc32)C[C@@H]1O [Compound 149] | > 200
46 | NS(=O)(=O)CC[C@H]1C[C@@H](Nc2ncncc2C(=O)c2cc3c(s2)CSC[C@]32NCCc3ncc(Cl)cc32)C[C@@H]1O [Compound 150] | ≤ 50
47 | NS(=O)(=O)OC[C@H]1C[C@@H](Nc2ncncc2C(=O)c2cc3c(s2)CC2(CC2)CC32NCCc3ccc(Cl)cc32)C[C@@H]1O (stereo partly drawn) [Compound 151] | ≤ 50

same assay, conditions: 6 h incubation, numeric values, read-out: SUMO IF IC50

Row | Compound | IC50 [nM]
48 | CN1Cc2sc(C(=O)c3cncnc3N[C@@H]3C[C@H](COS(N)(=O)=O)[C@@H](O)C3)cc2[C@@]2(C1)NCCc1ccc(Cl)cc12 [Compound 113] | > 1000
49 | CN1Cc2sc(C(=O)c3cncnc3N[C@@H]3C[C@H](COS(N)(=O)=O)[C@@H](O)C3)cc2[C@]2(C1)NCCc1ccc(Cl)cc12 [Compound 114] | 22.8
50 | NS(=O)(=O)OC[C@H]1C[C@@H](Nc2ncncc2C(=O)c2cc3c(s2)CN(C2CC2)C[C@@]32NCCc3ccc(Cl)cc32)C[C@@H]1O [Compound 116] | > 1000
51 | NS(=O)(=O)OC[C@H]1C[C@@H](Nc2ncncc2C(=O)c2cc3c(s2)CN(C2CC2)C[C@]32NCCc3ccc(Cl)cc32)C[C@@H]1O [Compound 117] | 19.1
